{
  "source": "ChEMBL document CHEMBL3774317",
  "about": "“Design and synthesis of novel tamoxifen analogues that avoid CYP2D6 metabolism” (Eur J Med Chem, 2016)",
  "assay_type_in_all_cases": "functional",
  "key": {"[1]": {"test_system": "786-0", "experiment": "Cytotoxicity against human 786-0 cells assessed as cell growth at 10^-7 M after 48 hrs by SRB assay", "settings": "786-0, 48 h, read-out: Activity"}, "[2]": {"test_system": "SN12C", "experiment": "Cytotoxicity against human SN12C cells assessed as cell growth at 10^-5 M after 48 hrs by SRB assay", "settings": "read-out: Activity"}, "[3]": {"experiment": "Cytotoxicity against human HOP62 cells assessed as cell growth at 10^-4 M after 48 hrs by SRB assay", "settings": "HOP-62, 48 h, read-out: Activity"}, "[4]": {"test_system": "SK-MEL-5", "experiment": "Cytotoxicity against human SK-MEL-5 cells assessed as cell growth at 10^-7 M after 48 hrs by SRB assay", "settings": "SK-MEL-5, 48 h, read-out: Activity"}, "[5]": {"experiment": "Cytotoxicity against human RXF393 cells assessed as cell growth at 10^-5 M after 48 hrs by SRB assay", "settings": "RXF 393, 48 h, read-out: Activity"}, "[6]": {"experiment": "Cytotoxicity against human OVCAR5 cells assessed as cell growth at 10^-8 M after 48 hrs by SRB assay", "settings": "OVCAR-5, 48 h, read-out: Activity"}, "[7]": {"experiment": "Cytotoxicity against human RPMI8226 cells assessed as cell growth at 10^-6 M after 48 hrs by SRB assay", "settings": "RPMI-8226, 48 h, read-out: Activity"}, "[8]": {"test_system": "KM12", "experiment": "Cytotoxicity against human KM12 cells assessed as cell growth at 10^-4 M after 48 hrs by SRB assay", "settings": "KM12, 48 h, read-out: Activity"}, "[9]": {"experiment": "Cytotoxicity against human Caki1 cells assessed as cell growth at 10^-7 M after 48 hrs by SRB assay", "settings": "CAKI-1, 48 h, read-out: Activity"}, "[10]": {"experiment": "Cytotoxicity against human HCT116 cells assessed as cell growth at 10^-6 M after 48 hrs by SRB assay", "settings": "HCT-116, 48 h, read-out: Activity"}, "[11]": {"experiment": "Cytotoxicity against human SF268 cells assessed as cell growth at 10^-4 M after 48 hrs by SRB assay", "settings": "SF-268, 48 h, read-out: Activity"}, "[12]": {"test_system": "SK-MEL-5", "experiment": "Cytotoxicity against human SK-MEL-5 cells assessed as cell growth at 10^-8 M after 48 hrs by SRB assay", "settings": "SK-MEL-5, 48 h, read-out: Activity"}, "[13]": {"test_system": "786-0", "experiment": "Cytotoxicity against human 786-0 cells assessed as cell growth at 10^-5 M after 48 hrs by SRB assay", "settings": "786-0, 48 h, read-out: Activity"}, "[14]": {"experiment": "Cytotoxicity against human SF295 cells assessed as cell growth at 10^-4 M after 48 hrs by SRB assay", "settings": "SF-295, 48 h, read-out: Activity"}, "[15]": {"test_system": "A498", "experiment": "Cytotoxicity against human A498 cells assessed as cell growth at 10^-8 M after 48 hrs by SRB assay", "settings": "A498, 48 h, read-out: Activity"}, "[16]": {"experiment": "Cytotoxicity against human MOLT4 cells assessed as cell growth at 10^-4 M after 48 hrs by SRB assay", "settings": "MOLT-4, 48 h, read-out: Activity"}, "[17]": {"test_system": "786-0", "experiment": "Cytotoxicity against human 786-0 cells assessed as cell growth at 10^-4 M after 48 hrs by SRB assay", "settings": "786-0, 48 h, read-out: Activity"}, "[18]": {"test_system": "EKVX", "experiment": "Cytotoxicity against human EKVX cells assessed as cell growth at 10^-7 M after 48 hrs by SRB assay", "settings": "read-out: Activity"}, "[19]": {"test_system": "M14", "experiment": "Cytotoxicity against human M14 cells assessed as cell growth at 10^-6 M after 48 hrs by SRB assay", "settings": "M14, 48 h, read-out: Activity"}, "[20]": {"experiment": "Cytotoxicity against human SNB19 cells assessed as cell growth at 10^-6 M after 48 hrs by SRB assay", "settings": "SNB-19, 48 h, read-out: Activity"}, "[21]": {"experiment": "Cytotoxicity against human HCC2998 cells assessed as cell growth at 10^-7 M after 48 hrs by SRB assay", "settings": "HCC 2998, 48 h, read-out: Activity"}, "[22]": {"experiment": "Cytotoxicity against human HOP62 cells assessed as cell growth at 5 nM after 48 hrs by SRB assay", "settings": "HOP-62, 48 h, read-out: Activity"}, "[23]": {"test_system": "MCF7", "experiment": "Cytotoxicity against human MCF7 cells assessed as cell growth at 50 nM after 48 hrs by SRB assay", "settings": "MCF7, 48 h, read-out: Activity"}, "[24]": {"experiment": "Cytotoxicity against human HCC2998 cells assessed as cell growth at 0.5 uM after 48 hrs by SRB assay", "settings": "HCC 2998, 48 h, read-out: Activity"}, "[25]": {"test_system": "SK-MEL-2", "experiment": "Cytotoxicity against human SK-MEL-2 cells assessed as cell growth at 5 uM after 48 hrs by SRB assay", "settings": "SK-MEL-2, 48 h, read-out: Activity"}, "[26]": {"test_system": "SK-MEL-5", "experiment": "Cytotoxicity against human SK-MEL-5 cells assessed as cell growth at 50 nM after 48 hrs by SRB assay", "settings": "SK-MEL-5, 48 h, read-out: Activity"}, "[27]": {"test_system": "NCI-H226", "experiment": "Cytotoxicity against human NCI-H226 cells assessed as cell growth at 0.5 uM after 48 hrs by SRB assay", "settings": "NCI-H226, 48 h, read-out: Activity"}, "[28]": {"test_system": "NCI-H460", "experiment": "Cytotoxicity against human NCI-H460 cells assessed as cell growth at 50 nM after 48 hrs by SRB assay", "settings": "NCI-H460, 48 h, read-out: Activity"}, "[29]": {"experiment": "Cytotoxicity against human SW620 cells assessed as cell growth at 50 uM after 48 hrs by SRB assay", "settings": "SW-620, 48 h, read-out: Activity"}, "[30]": {"test_system": "A549", "experiment": "Cytotoxicity against human A549 cells assessed as cell growth at 0.5 uM after 48 hrs by SRB assay", "settings": "A549, 48 h, read-out: Activity"}, "[31]": {"test_system": "A498", "experiment": "Cytotoxicity against human A498 cells assessed as cell growth at 50 nM after 48 hrs by SRB assay", "settings": "A498, 48 h, read-out: Activity"}, "[32]": {"experiment": "Cytotoxicity against human SNB75 cells assessed as cell growth at 50 uM after 48 hrs by SRB assay", "settings": "SNB-75, 48 h, read-out: Activity"}, "[33]": {"test_system": "KM12", "experiment": "Cytotoxicity against human KM12 cells assessed as cell growth at 5 uM after 48 hrs by SRB assay", "settings": "KM12, 48 h, read-out: Activity"}, "[34]": {"experiment": "Cytotoxicity against human TK10 cells assessed as cell growth at 0.5 uM after 48 hrs by SRB assay", "settings": "TK-10, 48 h, read-out: Activity"}, "[35]": {"experiment": "Cytotoxicity against human MOLT4 cells assessed as cell growth at 50 nM after 48 hrs by SRB assay", "settings": "MOLT-4, 48 h, read-out: Activity"}, "[36]": {"test_system": "ACHN", "experiment": "Cytotoxicity against human ACHN cells assessed as cell growth at 5 uM after 48 hrs by SRB assay", "settings": "read-out: Activity"}, "[37]": {"test_system": "NCI-H522", "experiment": "Cytotoxicity against human NCI-H522 cells assessed as cell growth at 0.5 uM after 48 hrs by SRB assay", "settings": "NCI-H522, 48 h, read-out: Activity"}, "[38]": {"test_system": "786-0", "experiment": "Cytotoxicity against human 786-0 cells assessed as cell growth at 50 nM after 48 hrs by SRB assay", "settings": "786-0, 48 h, read-out: Activity"}, "[39]": {"experiment": "Cytotoxicity against human IGROV1 cells assessed as cell growth at 5 nM after 48 hrs by SRB assay", "settings": "IGROV-1, 48 h, read-out: Activity"}, "[40]": {"experiment": "Cytotoxicity against human SF268 cells assessed as cell growth at 50 nM after 48 hrs by SRB assay", "settings": "SF-268, 48 h, read-out: Activity"}, "[41]": {"test_system": "K562", "experiment": "Cytotoxicity against human K562 cells assessed as cell growth at 5 uM after 48 hrs by SRB assay", "settings": "K562, 48 h, read-out: Activity"}, "[42]": {"experiment": "Cytotoxicity against human BT549 cells assessed as cell growth at 5 nM after 48 hrs by SRB assay", "settings": "BT-549, 48 h, read-out: Activity"}},
  "data": [
    {"smiles": "C/C(=C(/c1ccc(O)cc1)c1ccc(OCCN2CCCC2)cc1)c1ccccc1", "values": [
      {"measurement": "growth at 0.1 µM", "setting": "[1]", "value": 99, "unit": "%"},
      {"measurement": "growth at 10 µM", "setting": "[2]", "value": 48, "unit": "%"},
      {"measurement": "growth at 100 µM", "setting": "[3]", "value": -86, "unit": "%"},
      {"measurement": "growth at 0.1 µM", "setting": "[4]", "value": 102, "unit": "%"},
      {"measurement": "growth at 10 µM", "setting": "[5]", "value": -37, "unit": "%"},
      {"measurement": "growth at 0.01 µM", "setting": "[6]", "value": 88, "unit": "%"},
      {"measurement": "growth at 1 µM", "setting": "[7]", "value": 92, "unit": "%"},
      {"measurement": "growth at 100 µM", "setting": "[8]", "value": -89, "unit": "%"},
      {"measurement": "growth at 0.1 µM", "setting": "[9]", "value": 88, "unit": "%"},
      {"measurement": "growth at 1 µM", "setting": "[10]", "value": 93, "unit": "%"},
      {"measurement": "growth at 100 µM", "setting": "[11]", "value": -80, "unit": "%"},
      {"measurement": "growth at 0.01 µM", "setting": "[12]", "value": 101, "unit": "%"},
      {"measurement": "growth at 10 µM", "setting": "[13]", "value": -57, "unit": "%"},
      {"measurement": "growth at 100 µM", "setting": "[14]", "value": -95, "unit": "%"},
      {"measurement": "growth at 0.01 µM", "setting": "[15]", "value": 66, "unit": "%"},
      {"measurement": "growth at 100 µM", "setting": "[16]", "value": -61, "unit": "%"},
      {"measurement": "growth at 100 µM", "setting": "[17]", "value": -85, "unit": "%"},
      {"measurement": "growth at 0.1 µM", "setting": "[18]", "value": 93, "unit": "%"},
      {"measurement": "growth at 1 µM", "setting": "[19]", "value": 91, "unit": "%"},
      {"measurement": "growth at 1 µM", "setting": "[20]", "value": 104, "unit": "%"},
      {"measurement": "growth at 0.1 µM", "setting": "[21]", "value": 92, "unit": "%"}
    ]},
    {"smiles": "CCCCCCCCCC(=O)Oc1ccc(/C(=C(/C)c2ccccc2)c2ccc(OCCN3CCCC3)cc2)cc1", "values": [
      {"measurement": "growth at 0.005 µM", "setting": "[22]", "value": 103, "unit": "%"},
      {"measurement": "growth at 0.05 µM", "setting": "[23]", "value": 41, "unit": "%"},
      {"measurement": "growth at 0.5 µM", "setting": "[24]", "value": 88, "unit": "%"},
      {"measurement": "growth at 5 µM", "setting": "[25]", "value": 100, "unit": "%"},
      {"measurement": "growth at 0.05 µM", "setting": "[26]", "value": 102, "unit": "%"},
      {"measurement": "growth at 0.5 µM", "setting": "[27]", "value": 100, "unit": "%"},
      {"measurement": "growth at 0.05 µM", "setting": "[28]", "value": 102, "unit": "%"},
      {"measurement": "growth at 50 µM", "setting": "[29]", "value": -97, "unit": "%"},
      {"measurement": "growth at 0.5 µM", "setting": "[30]", "value": 96, "unit": "%"},
      {"measurement": "growth at 0.05 µM", "setting": "[31]", "value": 53, "unit": "%"},
      {"measurement": "growth at 50 µM", "setting": "[32]", "value": -90, "unit": "%"},
      {"measurement": "growth at 5 µM", "setting": "[33]", "value": 94, "unit": "%"},
      {"measurement": "growth at 0.5 µM", "setting": "[34]", "value": 90, "unit": "%"},
      {"measurement": "growth at 0.05 µM", "setting": "[35]", "value": 91, "unit": "%"},
      {"measurement": "growth at 5 µM", "setting": "[36]", "value": 88, "unit": "%"},
      {"measurement": "growth at 0.5 µM", "setting": "[37]", "value": 98, "unit": "%"},
      {"measurement": "growth at 0.05 µM", "setting": "[38]", "value": 94, "unit": "%"},
      {"measurement": "growth at 0.005 µM", "setting": "[39]", "value": 108, "unit": "%"},
      {"measurement": "growth at 0.05 µM", "setting": "[40]", "value": 97, "unit": "%"},
      {"measurement": "growth at 5 µM", "setting": "[41]", "value": 74, "unit": "%"},
      {"measurement": "growth at 0.005 µM", "setting": "[42]", "value": 100, "unit": "%"}
    ]}
  ]
}
